In the NIST ThermoML archive (doi:10.1016/j.jct.2015.08.015):

Details: Liquid, Ebulliometric method (Recirculating still)

CC=CCC#N [3-pentenenitrile]
Details | vapor or sublimation pressure [kPa]
339.24 K | 7.588
344.85 K | 9.491
353.91 K | 13.48
362.45 K | 18.32
368.92 K | 22.91
375.61 K | 28.8
382.01 K | 35.37
386.13 K | 40.09
388.17 K | 42.83
391.42 K | 47.08
394.31 K | 51.62
398.64 K | 57.83
402.51 K | 65.49
407.31 K | 74.49
409.72 K | 80.01
412.88 K | 86.78
414.32 K | 90.5
417.51 K | 97.9
